Among the data in PubChem BioAssay AID720624 (Broad Institute, 2013) are AC50 values, retold here.

For the experiment, the system named is SNB-75 viability, CellTiter-Glo ATP luminescence, 8-48 h. The experiment can be described thus: cytotoxicity in SNB-75 CNS cells – cell-based, CellTiter-Glo ATP luminescence, several timepoints, dry powder, mechanism study for HRAS target identification, late-stage follow-up (AID 720624).

Results filed as inconclusive are left out.

In general, AC50 refers to the concentration at which the activity in the assay is half-maximal. As for `Cc1onc(C(=O)N2CCN(C(c3ccc(Cl)cc3)c3ccc(Cl)cc3)CC2)c1[N+](=O)[O-]`, the AC50 runs as follows: (measured here: 8 h treatment) 629 nM; (measured here: 24 h treatment) 490 nM; (measured here: 48 h treatment) 1050 nM.
With `CC(C)(C)OC(=O)NCCOCCOCCOc1ccc(N(C(=O)CCl)C(C(=O)NCCc2ccccc2)c2cccs2)cc1Cl` (stereo not given), the concentration at half-maximal activity (AC50) is 787 nM (measured here: 8 h treatment), 398 nM (measured here: 24 h treatment) and 1030 nM (measured here: 48 h treatment).
`COc1ccc(N(C(=O)CCl)C(C(=O)NCCc2ccccc2)c2cccs2)cc1Cl` (stereo not given) registered an AC50 (measured here: 8 h treatment) of 298 nM, an AC50 (measured here: 24 h treatment) of 246 nM and an AC50 (measured here: 48 h treatment) of 319 nM.
Regarding `C#CCCCC(=O)NCCOCCOCCOc1ccc(N(C(=O)CCl)C(C(=O)NCCc2ccccc2)c2cccs2)cc1Cl` (stereo not given), the AC50 amounted to 3810 nM (measured here: 8 h treatment), 2480 nM (measured here: 24 h treatment) and 4780 nM (measured here: 48 h treatment).
For `COC(=O)c1ccc([C@@H]2c3[nH]c4ccccc4c3C[C@@H](C(=O)OC)N2C(=O)CCl)cc1`, in that order: 479 nM, 224 nM and 418 nM.
